Measurements reported in PubChem BioAssay (NCI).
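Five compound concentrations were applied to cells in 96-well plates for 48 hours; endpoints were derived by simple linear interpolation of the resulting dose-response curve. GI50 marks 50% less growth. TGI: total growth inhibition.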

Columns and labels:
Test in all cases: growth of human tumour cells (NCI), 48 h
[1] = system: SW-620 colon
[2] = system: CCRF-CEM leukemia
[3] = system: KM12 colon
[4] = system: EKVX NSCLC
[5] = system: NCI-H226 lung
[6] = system: 786-0 renal
[7] = system: NCI-H460 lung
[8] = system: PC-3 prostate
[9] = system: RXF 393 renal
[10] = system: HL-60(TB) leukemia

Structure (SMILES) | GI50 [1] [µM] | TGI [1] [µM] | GI50 [2] [µM] | TGI [2] [µM] | GI50 [3] [µM] | TGI [3] [µM] | GI50 [4] [µM] | TGI [4] [µM] | GI50 [5] [µM] | TGI [5] [µM] | GI50 [6] [µM] | TGI [6] [µM] | GI50 [7] [µM] | TGI [7] [µM] | GI50 [8] [µM] | TGI [8] [µM] | GI50 [9] [µM] | TGI [9] [µM] | TGI [10] [µM] | GI50 [10] [µM]
COC1C(OC(=O)/C=C/C=C/C=C/C=C\C(=O)O)CCC2(CO2)C1C1(C)OC1CC=C(C)C (configuration not stated) | > 200 | > 200 | > 200 | > 200 | > 200 | > 200 | > 200 | > 200 | > 200 | > 200 | > 200 | > 200 | > 200 | > 200 | > 200 | > 200 | > 200 | > 200 |  | 
Clc1ccc2nc(-c3ccccc3)nc(Cl)c2c1 |  | > 100 |  | > 100 |  | > 100 |  | > 100 |  | > 100 |  | > 100 |  | > 100 |  |  |  | 48.6 | 31.1 | 
CCCCN(CCCC)CCC(O)c1cc2c(Cl)cc(Cl)cc2c2cc(C(F)(F)F)ccc12 (configuration not stated) |  | 25.7 |  | 29 |  |  |  | 29.1 |  |  |  | 25.7 |  | 25.5 |  | 22.2 |  |  | 21.8 | 
CCCCNC(=O)Oc1ccc(/C(=C(/C)Cc2ccc(OC)cc2)c2ccc(OCCN3CCCC3)cc2)cc1 | 1.78 | 3.36 | 2.57 | 7.41 | 2.03 | 4.49 | 1.86 | 5.5 | 3.03 | 11.4 | 1.51 | 2.91 | 1.81 | 3.34 |  |  | 2.07 | 3.79 | 3.82 | 1.64
COC(=O)N/N=C(/CCC(=O)Nc1ccc(C)c(C)c1)CC(=O)C(C)(C)C |  | > 100 |  | > 100 |  | > 100 |  | > 100 |  | > 100 |  | > 100 |  | > 100 |  |  |  | > 100 | > 100 | 
CC1C[C@]2(C[C@@H](C)C(=O)O2)O[C@@H]2CC3(C)[C@@H]4CCC5C(C)(C)OC(=O)C[C@H]6OO[C@]4(CC[C@]3(C)C12)CC56O (some centres not stated) |  | > 100 |  |  |  |  |  |  |  | > 100 |  | > 100 |  | > 100 |  |  |  | > 100 | > 100 | 
CCOC(=O)C1=C(C)N(NC(N)=O)C(C)(O)C12CCOC2=O (configuration not stated) |  | > 100 |  |  |  | > 100 |  | > 100 |  | > 100 |  | > 100 |  | > 100 |  |  |  |  | > 100 | 
CC1=C(C(=O)Nc2ccc([N+](=O)[O-])cc2)C(c2ccc3c(c2)OCO3)C(C(=O)Nc2ccc([N+](=O)[O-])cc2)=C(C)N1 |  | > 100 |  |  |  | 24.9 |  | > 100 |  | 55.8 |  | > 100 |  | > 100 |  |  |  | > 100 |  | 
COc1ccc(-c2cc(-c3cc(Cl)cc(Br)c3O)[nH]c(=O)n2)cc1 |  | 46.9 |  | 70.7 |  | 41.3 |  | 27.3 |  | 33.4 |  | 32 |  | 34.6 |  |  |  | 31.7 | 48.5 | 
Cc1cccc(N2C(=O)C(=O)C(c3nc4ccccc4s3)/C(=N/NC(=S)NN)C2=O)c1C (configuration not stated) |  | > 100 |  |  |  | > 100 |  | > 100 |  | > 100 |  | > 100 |  | > 100 |  |  |  | > 100 |  | 
CCN(CC)C(=O)N1CCN(C=S)CC1 |  | > 100 |  | > 100 |  | > 100 |  | > 100 |  | > 100 |  | > 100 |  | > 100 |  |  |  | > 100 | > 100 | 
CC(/C=C/c1ccccc1)=N\NC(N)=S |  | > 100 |  | > 100 |  | > 100 |  | > 100 |  | > 100 |  | > 100 |  | > 100 |  | > 100 |  |  | 41.7 | 
Cc1ccc(C2=Nc3c(N)ncnc3NC(c3ccc4c(c3)OCO4)C2)cc1 (configuration not stated) | 3.56 | 16.8 |  |  | 3.79 | 15 | 16.2 | > 100 | 12.6 | 47.9 | > 100 | > 100 | 3.59 | 12.8 |  |  | 3.5 | 23.1 | > 100 | 0.718
O=C1Nc2ccccc2/C1=C\c1nc(C2CCN(S(=O)(=O)c3ccc(F)cc3)CC2)n2ccccc12 | 85.7 | > 100 | > 100 | > 100 |  |  | 4.87 | > 100 | 2.32 | 21.1 | 2.37 | 6.71 | 9.97 | > 100 | 4.98 | > 100 |  |  | > 100 | > 100
OCCNCCCOc1ccc2ncnc(Nc3ccc(Oc4cccc(C(F)(F)F)c4)c(Cl)c3)c2c1 | 1.76 | 3.38 | 1.66 | 4.42 | 1.77 | 3.26 | 1.24 | 2.76 |  |  | 1.62 | 3.03 | 1.73 | 3.31 | 1.66 | 3.21 |  |  |  | 
CC1(C)C=N[N+]2(C)C3C=CC(CC3)C12 (configuration not stated) |  |  |  | > 100 |  | > 100 |  | > 100 |  | > 100 |  | > 100 |  | > 100 |  |  |  | > 100 | > 100 | 
C=CC1(NS(=O)(=O)c2ccc(C)cc2)CCC(C(C)(C)C)CC1 (configuration not stated) |  | > 100 |  | > 100 |  | > 100 |  |  |  | > 100 |  | > 100 |  | > 100 |  |  |  | 54.8 | > 100 | 
O=[N+]([O-])c1ccc(/C=C/c2csnn2)cc1 |  | > 100 |  | > 100 |  | > 100 |  | > 100 |  | > 100 |  | > 100 |  | > 100 |  |  |  | > 100 | > 100 | 
CC(C)CC(Nc1c(O)ccc2ccccc12)C(=O)O (configuration not stated) |  | > 100 |  | > 100 |  | > 100 |  | 58.3 |  | 62.1 |  | > 100 |  | > 100 |  |  |  | 35.8 | > 100 | 
Cc1cc(N2CCCC2)nc(NCc2cc(Nc3ccnc4cc(Cl)ccc34)ccc2F)n1 |  |  |  |  | 1.52 | 3.01 |  |  |  |  | 1.34 | 2.84 | 1.23 | 2.86 | 1.19 | 2.58 | 1.43 | 2.87 | 4.49 | 1.99
